The text below walks through data of publication PMC5667462, “Benzoylphenyl thiocyanates are new, effective inhibitors of the mycobacterial resuscitation promoting factor B protein” (Annals of Clinical Microbiology and Antimicrobials, 2017).

The target in the first experiment is T1, RpfB (catalytic domain, residues 280-362) (Mycobacterium tuberculosis, UniProt P9WG29). The experiment in a line: release of fluorescent fragments from FITC-labelled peptidoglycan. Format: biochemical. The following applies: read-out: IC50 Rpf-hydrolysis of PG, μM / M. tuberculosis. The source says: release of fluorescent fragments from FITC-labelled peptidoglycan on RpfB (catalytic domain, residues 280-362)
T1 sequence (P9WG29 280-362): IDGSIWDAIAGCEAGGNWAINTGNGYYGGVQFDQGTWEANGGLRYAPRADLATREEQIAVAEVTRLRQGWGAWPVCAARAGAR
For the compound `N#CSc1cccc(C(=O)c2ccccc2)c1` [II, 3-Benzoylphenyl thiocyanate], the IC50 was 1.7 ± 0.4 µM.
Same read-out and setting: for `N#CSc1ccc(C(=O)c2ccccc2)cc1` [III, 4-Benzoylphenyl thiocyanate] the value was 1.2 ± 0.5 µM.
`N#CSc1ccc(C(=O)c2ccc(SC#N)c([N+](=O)[O-])c2)cc1[N+](=O)[O-]` [IV, Bis(4-thiocyano-3-nitrophenyl)methanone]: the IC50 is 5.8 ± 2 µM.
On the same count and under the same terms, the figure for `N#CSc1ccc(C(=O)c2ccc(SC#N)cc2)cc1` [V, Bis(4-thiocyanophenyl)methanone] is 4.3 ± 2.4 µM; for `N#CSc1cccc(C(=O)c2cccc(SC#N)c2)c1` [VI, Bis(3-thiocyanophenyl)methanone] it is 3.6 ± 1.2 µM.

A further experiment concerns the target T1, RpfB (catalytic domain, residues 280-362). The experiment in a line: intrinsic tryptophan fluorescence quenching (Stern-Volmer). It counts as binding. The following applies: 50 mM phosphate buffer, pH 6.0; room temperature; RpfB 25.6 μg/ml; excitation 280 nm.
Take `N#CSc1ccc(C(=O)c2ccc(SC#N)c([N+](=O)[O-])c2)cc1[N+](=O)[O-]` [IV, Bis(4-thiocyano-3-nitrophenyl)methanone]: the “intrinsic tryptophan fluorescence quenching (Stern-Volmer)” value was “confirmed by quenching of Rpf’s autofluorescence by the compound (IV)”.
